Results on 3 compounds are retold here after patent US20070207144A1, “Ubiquitin/proteasome inhibitors for the treatment of spinal muscular atrophy” (priority 2006, published 2007).

Experiment [1] has as its system several cell types. Particulars: Fenteany et al., PNAS 1994; cited from earlier work.
Experiment [2] relates to fibroblasts isolated from an SMA patient. As to the kind of experiment: SMN protein and gem formation in SMA patient fibroblasts. It counts as cell-based, human. Particulars: compared with the control DMSO. An excerpt:
The invention is further related to the appreciation that the assays described herein can be efficiently used as the primary assay for selecting a candidate for the treatment of SMA. Thus, the invention relates to a method for selecting a candidate for the treatment of SM-A comprising (a) contacting the candidate with a fibroblast cell culture derived from an SMA patient under conditions and for a period of time sufficient for SMN protein expression and gem formation; (b) determining the formation of gems of SMN protein; and (c) selecting the candidate. The formation of gems can be determined by establishing the percentage of fibroblasts with gems in the cell culture. In other embodiments, the number of gems or concentration of gems in the culture can be determined.
Cell lines are derived from SMA patients. Such cells are termed “SMA cells” herein. The cells are isolated from a variety of sources and tissues. For example, the cells can be isolated from a blood sample or from a biopsy. The cell can be a stem cell, a fibroblast, a neuronal cell or a lymphoid cell. The cells can be propagated in culture according to cell type and origin of the cells. The requisite growth factors can be provided in the media. For example, the media can be supplemented with fetal calf serum, a cocktail of purified factors, or an individual growth factor. The cells can be propagated without being immortalized. Alternatively, the cells can immortalized using a virus or a plasmid bearing an oncogene, or a transforming viral protein, e.g., papilloma E6 or E7 protein. The source of the fibroblasts for cell culture can be isolated from a patient with SMA or derived from such an isolation. In one embodiment, the cells are a clonal cell culture derived from an SMA patient.
Procedures for isolating and maintaining cells lines are well known in the art and can be found in suitable laboratory manuals. The cells can be grown in sufficient amount to screen an array of test compounds. Alternatively, cells can be used to assess the effectiveness of individual compounds as SMA treatments. […]

For experiment [3], the system named is proteasome. Particulars: Fenteany et al., Science 1995; cited from earlier work.

Consider `CC(=O)N[C@@H](CSC(=O)[C@]1([C@@H](O)C(C)C)NC(=O)[C@H](C)[C@@H]1O)C(=O)O` [Lactacystin, lactacystin], for which the “proliferation of several cell types” value in experiment [1] is given as “capable of inhibiting”. Also, in experiment [2], the “SMN & Gems in patient fibroblasts (pictures)” value (shortened to “SMN & Gems”) is “induced”. For the same compound, the “proteolytic activity of the proteasome complex” value in experiment [3] was “specifically inhibits”. As to `CC(C)C[C@H](NC(=O)[C@H](Cc1ccccc1)NC(=O)c1cnccn1)B(O)O` [Velcade, bortezomib], in experiment [2], the “SMN & Gems” value is “induced”.

For the compound `CC(C)[C@H](O)[C@@]12NC(=O)[C@H](CCCl)[C@]1(C)OC2=O` [Antiprotealide, antiprotealide], the “SMN & Gems” value in experiment [2] is listed as “induced”.
